Results as given in PubChem BioAssay (NCI).
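Following 48 hours of exposure in 96-well plates, responses at five concentrations were used to interpolate endpoints linearly. GI50 = concentration required for 50% inhibition of growth. Definition used: TGI = concentration required for complete inhibition of growth.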

Assays:
Assay in all cases: NCI tumour cell line growth inhibition, 48 h
HCT-15 colon = tested on: HCT-15 colon
OVCAR-4 ovarian = tested on: OVCAR-4 ovarian
SF-295 CNS = tested on: SF-295 CNS
TK-10 renal = tested on: TK-10 renal
SNB-75 CNS = tested on: SNB-75 CNS
HCT-116 colon = tested on: HCT-116 colon
NCI-H226 lung = tested on: NCI-H226 lung
NCI-H23 lung = tested on: NCI-H23 lung
T-47D breast = tested on: T-47D breast
HCC-2998 colon = tested on: HCC-2998 colon
UACC-62 melanoma = tested on: UACC-62 melanoma
A549 NSCLC = tested on: A549 NSCLC
RPMI-8226 leukemia = tested on: RPMI-8226 leukemia
HOP-92 NSCLC = tested on: HOP-92 NSCLC
SN12C renal = tested on: SN12C renal
PC-3 prostate = tested on: PC-3 prostate
A498 renal = tested on: A498 renal
BT-549 breast = tested on: BT-549 breast
CAKI-1 renal = tested on: CAKI-1 renal
MOLT-4 leukemia = tested on: MOLT-4 leukemia
NCI-H460 lung = tested on: NCI-H460 lung
LOX IMVI melanoma = tested on: LOX IMVI melanoma
OVCAR-8 ovarian = tested on: OVCAR-8 ovarian
SF-268 CNS = tested on: SF-268 CNS
DU-145 prostate = tested on: DU-145 prostate
OVCAR-5 ovarian = tested on: OVCAR-5 ovarian
HL-60(TB) leukemia = tested on: HL-60(TB) leukemia
SNB-19 CNS = tested on: SNB-19 CNS

**Q.** What does the source list for `CNC(=O)c1cc(Oc2ccc3c(c2)sc2nc(-c4ccc(N)cc4)cn23)ccn1`?
**A.** GI50 (HCT-15 colon): 0.122 µM; TGI (HCT-15 colon): > 100 µM; GI50 (OVCAR-4 ovarian): 2.49 µM; TGI (OVCAR-4 ovarian): > 100 µM; GI50 (SF-295 CNS): 0.104 µM; TGI (SF-295 CNS): > 100 µM; GI50 (TK-10 renal): 0.278 µM; TGI (TK-10 renal): > 100 µM; GI50 (SNB-75 CNS): 0.286 µM; TGI (SNB-75 CNS): > 100 µM; GI50 (HCT-116 colon): 0.211 µM; TGI (HCT-116 colon): > 100 µM; GI50 (NCI-H226 lung): 2.01 µM; TGI (NCI-H226 lung): > 100 µM; GI50 (NCI-H23 lung): 0.491 µM; TGI (NCI-H23 lung): > 100 µM; GI50 (T-47D breast): 0.397 µM; TGI (T-47D breast): 57.6 µM; GI50 (HCC-2998 colon): 0.537 µM; TGI (HCC-2998 colon): > 50.5 µM; GI50 (UACC-62 melanoma): 0.0982 µM; TGI (UACC-62 melanoma): > 100 µM; GI50 (A549 NSCLC): 0.474 µM; TGI (A549 NSCLC): > 100 µM; GI50 (RPMI-8226 leukemia): 0.32 µM; TGI (RPMI-8226 leukemia): 26.3 µM; GI50 (HOP-92 NSCLC): 5.98 µM; TGI (HOP-92 NSCLC): > 100 µM; GI50 (SN12C renal): 0.759 µM; TGI (SN12C renal): > 100 µM; GI50 (PC-3 prostate): 0.324 µM; TGI (PC-3 prostate): > 100 µM; GI50 (A498 renal): 0.0762 µM; TGI (A498 renal): 0.65 µM; GI50 (BT-549 breast): 0.5 µM; TGI (BT-549 breast): 51.6 µM; GI50 (CAKI-1 renal): 0.329 µM; TGI (CAKI-1 renal): > 100 µM; GI50 (MOLT-4 leukemia): 0.26 µM; TGI (MOLT-4 leukemia): > 60.8 µM; GI50 (NCI-H460 lung): 0.289 µM; TGI (NCI-H460 lung): 20.6 µM; GI50 (LOX IMVI melanoma): 0.904 µM; TGI (LOX IMVI melanoma): > 100 µM; GI50 (OVCAR-8 ovarian): 0.39 µM; TGI (OVCAR-8 ovarian): > 100 µM; GI50 (SF-268 CNS): 0.791 µM; TGI (SF-268 CNS): > 100 µM; GI50 (DU-145 prostate): 0.344 µM; TGI (DU-145 prostate): > 100 µM; TGI (OVCAR-5 ovarian): > 100 µM; GI50 (HL-60(TB) leukemia): 0.108 µM; GI50 (SNB-19 CNS): 0.405 µM
